# From patent US20230131808A1, “PEGYLATED INTERFERON TAU AND COMPOSITIONS AND METHODS THEREOF” (priority 2020, published 2023)
# How the values were obtained:
# [1] = Cytotoxicity in Huh7 cells without virus infection (CellTiter Glo); conditions: human
# Huh7 cells = test: as above
# [2] = system: Human Coronavirus 229E (hCoV-229E); test: microbe, parasite or virus in culture; format: cell-based
# hCoV-OC43 = test: HCoV OC43 CPE assay in Huh7 cells; format: cell-based; conditions: Betacoronavirus 1, Huh-7
smiles,measurement,setting,value
CCC(CC)COC(=O)[C@H](C)N[P@](=O)(OC[C@H]1O[C@@](C#N)(c2ccc3c(N)ncnn23)[C@H](O)[C@@H]1O)Oc1ccccc1 [Remdesivir],CC50 at 7 days,[1],17.2 µM
same,Average Viability (%),Huh7 cells; 0.046 μM,99.99%
same,Average Viability (%),Huh7 cells; 0.137 μM,101.58%
same,Average Viability (%),Huh7 cells; 0.412 μM,104.10%
same,Average Viability (%),Huh7 cells; 1.235 μM,102.28%
same,Average Viability (%),Huh7 cells; 3.704 μM,86.91%
same,Average Viability (%),Huh7 cells; 11.11 μM,56.84%
same,Average Viability (%),Huh7 cells; 33.33 μM,36.88%
same,Average Viability (%),Huh7 cells; 100.00 μM,21.77%
NC(=O)c1ncn([C@@H]2O[C@H](CO)[C@@H](O)[C@H]2O)n1 [Ribavirin],IC50,[2],30 µM
CCN(CC)CCCC(C)Nc1ccnc2cc(Cl)ccc12 (centres unmarked) [chloroquine phosphate],EC50,hCoV-OC43,3.12 µM
